Reference: ChEMBL document CHEMBL5724914, “Linking interpersonal differences in gut microbiota composition and drug biotransformation activity” (2024)
Where a SMILES comes first, the peptide text is derived from it. [ ]: non-standard residue; d: D form. pGlu = O=C1CC[C@@H](C(=O)O)N1; Thz = O=C(O)[C@@H]1CSCN1

Assays:
[1] = (§1) The drug is tested on Z-028 corresponding to mouse gut metagenome with ENA study accession number: PRJEB37062 and ENA sample accession number: ERS12561827 for biotransformation under anaerobic condition. The drug concentrations were measured over 9 timepoints collected between 0 and 24 hours of incubation by liquid-chromatography-coupled mass spectrometry (LC–MS); details: 2 µM
[2] = as §1, with “Z-022” for “Z-028”, “ERS12561821” for “ERS12561827”; details: 2 µM
[3] = as §1, with “Z-018” for “Z-028”, “pig” for “mouse”, “ERS12561817” for “ERS12561827”; details: 2 µM
[4] = as §1, with “Z-011” for “Z-028”, “ERS12561811” for “ERS12561827”; details: 2 µM
[5] = as §1, with “Z-007” for “Z-028”, “rat” for “mouse”, “ERS12561807” for “ERS12561827”; details: 2 µM
[6] = as §1, with “Z-004” for “Z-028”, “to” for “to mouse gut”, “ERS12561804” for “ERS12561827”; details: 2 µM
[7] = as §1, with “Z-003” for “Z-028”, “pig” for “mouse”, “ERS12561803” for “ERS12561827”; details: 2 µM
[8] = as §1, with “WLS-220” for “Z-028”, “human” for “mouse”, “ERS12561769” for “ERS12561827”; details: 2 µM
[9] = as §1, with “WLS-170” for “Z-028”, “human” for “mouse”, “ERS12561762” for “ERS12561827”; details: 2 µM
[10] = as §1, with “WLS-086” for “Z-028”, “human” for “mouse”, “ERS12561752” for “ERS12561827”; details: 2 µM
[11] = as §1, with “WLS-069” for “Z-028”, “human” for “mouse”, “ERS12561748” for “ERS12561827”; details: 2 µM
[12] = as §1, with “WLS-027” for “Z-028”, “human” for “mouse”, “ERS12561744” for “ERS12561827”; details: 2 µM
[13] = human gut metagenome, 24 h, 2 µM
[14] = human gut metagenome, 24 h, 2 µM; remark: listed apart in the source
[15] = human gut metagenome, 24 h, 2 µM; remark: listed apart in the source
[16] = human gut metagenome, 24 h, 2 µM; remark: listed apart in the source
[17] = human gut metagenome, 24 h, 2 µM; remark: listed apart in the source
[18] = human gut metagenome, 24 h, 2 µM; remark: listed apart in the source
[19] = human gut metagenome, 24 h, 2 µM; remark: listed apart in the source
[20] = human gut metagenome, 24 h, 2 µM; remark: listed apart in the source
Further: call rule not given here.

| SMILES | Bacterial Biotransformation [1] | Bacterial Biotransformation [2] | Bacterial Biotransformation [3] | Bacterial Biotransformation [4] | Bacterial Biotransformation [5] | Bacterial Biotransformation [6] | Bacterial Biotransformation [7] | Bacterial Biotransformation [8] | Bacterial Biotransformation [9] | Bacterial Biotransformation [10] | Bacterial Biotransformation [11] | Bacterial Biotransformation [12] | Bacterial Biotransformation [13] | Bacterial Biotransformation [14] | Bacterial Biotransformation [15] | Bacterial Biotransformation [16] | Bacterial Biotransformation [17] | Bacterial Biotransformation [18] | Bacterial Biotransformation [19] | Bacterial Biotransformation [20] |
| --- | --- | --- | --- | --- | --- | --- | --- | --- | --- | --- | --- | --- | --- | --- | --- | --- | --- | --- | --- | --- |
| CCC(COC(=O)c1cc(OC)c(OC)c(OC)c1)(c1ccccc1)N(C)C.O=C(O)/C=C\C(=O)O (stereo not given) | Compound metabolized | Compound metabolized | Compound metabolized | Compound NOT metabolized | Compound NOT metabolized | Compound NOT metabolized | Compound NOT metabolized | Compound metabolized | Compound metabolized | Compound NOT metabolized | Compound metabolized | Compound metabolized | Compound NOT metabolized | Compound NOT metabolized | Compound NOT metabolized | Compound NOT metabolized | Compound metabolized | Compound metabolized | Compound NOT metabolized | Compound metabolized |
| COc1ccc(CCN(C)CCCC(C#N)(c2ccc(OC)c(OC)c2)C(C)C)cc1OC (stereo not given) | Compound metabolized | Compound NOT metabolized | Compound metabolized | Compound NOT metabolized | Compound NOT metabolized | Compound NOT metabolized | Compound metabolized | Compound metabolized | Compound metabolized | Compound metabolized | Compound metabolized | Compound metabolized | Compound metabolized | Compound NOT metabolized | Compound NOT metabolized | Compound NOT metabolized | Compound metabolized | Compound metabolized | Compound NOT metabolized | Compound metabolized |
| CCCCCCOC(=O)/N=C(/N)c1ccc(NCc2nc3cc(C(=O)N(CCC(=O)OCC)c4ccccn4)ccc3n2C)cc1.CS(=O)(=O)O [DABIGATRAN ETEXILATE MESYLATE] | Compound NOT metabolized | Compound NOT metabolized | Compound NOT metabolized | Compound NOT metabolized | Compound NOT metabolized | Compound NOT metabolized | Compound NOT metabolized |  |  |  |  |  | Compound NOT metabolized | Compound NOT metabolized |  |  |  |  |  | Compound NOT metabolized |
| O=c1[nH]c2ccccc2n1CCCN1CCC(n2c(=O)[nH]c3cc(Cl)ccc32)CC1 [DOMPERIDONE] | Compound NOT metabolized | Compound NOT metabolized | Compound NOT metabolized | Compound NOT metabolized | Compound NOT metabolized | Compound NOT metabolized | Compound NOT metabolized | Compound NOT metabolized |  | Compound metabolized | Compound NOT metabolized | Compound NOT metabolized |  |  |  | Compound NOT metabolized | Compound NOT metabolized |  |  | Compound NOT metabolized |
| c1ccc([C@H]2CN3CCSC3=N2)cc1 [LEVAMISOLE] | Compound metabolized | Compound metabolized | Compound metabolized | Compound NOT metabolized | Compound NOT metabolized | Compound NOT metabolized |  | Compound metabolized | Compound metabolized |  | Compound metabolized | Compound metabolized | Compound metabolized | Compound metabolized | Compound metabolized | Compound metabolized |  | Compound metabolized | Compound metabolized | Compound metabolized |
| C#C[C@]1(O)CC[C@H]2[C@@H]3CCC4=CC(=O)CC[C@@H]4[C@H]3CC[C@@]21CC [LEVONORGESTREL] | Compound metabolized | Compound metabolized | Compound metabolized | Compound metabolized | Compound metabolized | Compound metabolized |  | Compound metabolized | Compound metabolized | Compound metabolized | Compound metabolized | Compound metabolized | Compound metabolized | Compound metabolized | Compound metabolized | Compound NOT metabolized | Compound metabolized | Compound metabolized | Compound metabolized | Compound metabolized |
| O=C1CC[C@@H](C(=O)N2CSC[C@H]2C(=O)O)N1 [PIDOTIMOD] ([pGlu]-[Thz]-OH) | Compound NOT metabolized | Compound metabolized | Compound metabolized | Compound NOT metabolized | Compound NOT metabolized | Compound NOT metabolized | Compound NOT metabolized | Compound NOT metabolized | Compound NOT metabolized | Compound NOT metabolized |  | Compound NOT metabolized |  | Compound NOT metabolized | Compound NOT metabolized | Compound NOT metabolized |  | Compound metabolized | Compound NOT metabolized | Compound NOT metabolized |
| COc1cc2nc(N3CCN(C(=O)c4ccco4)CC3)nc(N)c2cc1OC [PRAZOSIN] | Compound NOT metabolized | Compound NOT metabolized | Compound NOT metabolized | Compound NOT metabolized | Compound NOT metabolized | Compound NOT metabolized | Compound NOT metabolized | Compound metabolized | Compound metabolized | Compound metabolized |  | Compound NOT metabolized | Compound NOT metabolized | Compound metabolized | Compound NOT metabolized | Compound metabolized | Compound NOT metabolized | Compound metabolized | Compound NOT metabolized | Compound metabolized |
| COC(=O)[C@H]1[C@H]2C[C@@H]3c4[nH]c5cc(OC)ccc5c4CCN3C[C@H]2C[C@@H](OC(=O)c2cc(OC)c(OC)c(OC)c2)[C@@H]1OC [RESERPINE] | Compound NOT metabolized | Compound metabolized | Compound NOT metabolized | Compound NOT metabolized | Compound NOT metabolized | Compound NOT metabolized | Compound NOT metabolized |  |  | Compound metabolized | Compound metabolized | Compound metabolized | Compound NOT metabolized | Compound NOT metabolized | Compound NOT metabolized |  |  |  |  | Compound NOT metabolized |
